Results as given in PubChem BioAssay AID489041 (Sanford-Burnham Center for Chemical Genomics, 2010).
Active and inactive are the calls of the source. The rule behind the calls is not given here.

Tested on: HEK-293T NF-kB luciferase reporter counterscreen, luminescence
Assay: NF-kB reporter inhibition in HEK-293T, dose response, counter-screen for T-cell antigen receptor NF-kB inhibitors, HEK-293T cells, luminescence (AID 489041)

Compound	IC50
Cc1ccc(/C=C/c2ccc(N(C)C)cc2)[n+](C)c1	2.7 µM
O=C(/C=C/c1cccc([N+](=O)[O-])c1)n1cnc2ccccc21	51.3 µM (inactive)
CCOc1ccc(N(CC(=O)Nc2ccccc2C)S(=O)(=O)c2c(C)noc2C)cc1	17 µM
COc1ccc(CC(=O)Nc2nc(-c3ccc(F)c(F)c3)cs2)cc1OC	2.87 µM
CCOc1ccccc1N1CC(O)=C(c2nc3ccccc3s2)C1=N	8.73 µM
CC(C)Oc1ccccc1C1CC(=O)Nc2cc3c(cc21)OCO3 (stereo unspecified)	3.01 µM
CCOc1ccccc1NC(=O)Cn1nnc(C(=O)NCc2cccs2)c1N	2.87 µM
CC(C)(C)c1ccc(C(=O)O/N=C(\N)c2ccccc2)cc1	0.31 µM
CSC1=NC(C(Cl)(Cl)Cl)N=C(c2ccc(C)cc2)N1 (stereo unspecified)	12.5 µM
O=C(Sc1cccc2cccnc12)c1ccccc1Br	27.1 µM (inactive)
COC(=O)Nc1ccc(S(=O)(=O)N2c3ccccc3CCC2C)cc1 (stereo unspecified)	13.1 µM
CCCCC(=O)NC(c1ccc(N(C)C)cc1)c1ccc2cccnc2c1O (stereo unspecified)	> 80 µM (inactive)
CCCC(=O)NC(c1ccc(C)cc1)c1ccc2cccnc2c1O (stereo unspecified)	0.43 µM
O=S1(=O)Nc2c(ccc3cccnc23)-c2ccccc21	0.28 µM
CCc1ccc2nc(SCC(=O)Nc3ccccc3N3CCOCC3)c(C#N)cc2c1	> 80 µM (inactive)
O=S(=O)(c1cc(F)ccc1F)N1CCN(c2ncnc3ccccc23)CC1	3.94 µM
C[C@@H]1O[C@@H](O[C@H]2C[C@@H](O)[C@]3(CO)[C@H]4[C@H](O)C[C@]5(C)[C@@H](C6COC(=O)C6)CC[C@]5(O)[C@@H]4CC[C@]3(O)C2)[C@H](O)[C@H](O)[C@H]1O (stereo partly specified)	0.87 µM
COc1ccccc1NC(=O)c1cnc(Nc2ccccc2OC)c2ccccc12	> 80 µM (inactive)
COCCn1c(C)cc(C2=NNC(=Nc3ccccc3F)SC2)c1C	17.9 µM
COc1ccc(C(=O)NNC(=O)c2ccccn2)cc1	2.92 µM
Cc1ccc(NS(=O)(=O)c2ccc(C(=O)NC3CCN(Cc4ccccc4)CC3)cc2)cc1	7.66 µM
C=CCNC(=S)N/N=C(\C)c1ccccn1	> 80 µM (inactive)

Compound	IC50
COc1ccc(OC)c2c1C(=O)C(Cl)=C(Cl)C2=O	3.96 µM
C/C=C(\C)C(=O)N[C@@H](c1ccccc1)[C@@H](O)C(=O)O[C@H]1C[C@@]2(O)[C@@H](OC(=O)c3ccccc3)C3[C@](C)(C(=O)[C@H](O)C(=C1C)C2(C)C)[C@@H](O)C[C@H]1OC[C@@]31OC(C)=O (stereo partly specified)	> 80 µM (inactive)
COc1cc(-c2noc(C)c2/C=C/c2cccc([N+](=O)[O-])c2)cc(OC)c1OC	9.59 µM
COc1cc(-c2noc(C)c2C#Cc2ccsc2)cc(OC)c1OC	4.06 µM
CCOc1ccc(Br)cc1C1=CC(=O)C[C@H](c2ccc(OC)cc2)C1	13.7 µM
O=C1C=C(c2ccc3ncccc3c2)C[C@@H](c2ccc3c(c2)OCO3)C1	11.1 µM
O=C(Nc1ccc(S(=O)(=O)N2CCOCC2)cc1)c1ccc(CN2CCc3ccccc3C2)cc1	1.29 µM
COc1cc(-c2noc(C)c2-c2ccc3[nH]ccc3c2)cc(OC)c1OC	2.45 µM
CCC(C)(C)c1ccc(OCCCC[n+]2cccc(C)c2C)c(C(C)(C)CC)c1	4.01 µM
O=C(N=Nc1c(O)[nH]c2ccc(Br)cc12)c1ccccc1-n1cccc1	7.76 µM
CCOC(=O)c1[nH]c2c(c1C)C(=O)CC(c1ccco1)C2 (stereo unspecified)	4.38 µM
COc1ccc(CCNc2cc(N3CCN(C(=O)c4ccccc4F)CC3)ccc2[N+](=O)[O-])cc1OC	0.68 µM
CCC/C(O)=C1\C(=O)CC(C)(C)CC1=Nc1ccc(OC)cc1OC	18.4 µM
Cc1ccc(N(C)S(=O)(=O)c2ccc(-c3cnc(C4CC4)o3)cc2)cc1	4.53 µM
COc1cc2c(c(OC)c1OC)-c1ccc(OC)c(=O)cc1[C@@H](NC(C)=O)CC2	< 0.16 µM
O=[N+]([O-])c1nn(-c2ccc3c(c2)OCCO3)n(O)c1=Nc1ccccc1	12.4 µM
CC(=O)NC(c1ccc(C(C)C)cc1)c1ccc2cccnc2c1O (stereo unspecified)	40.7 µM (inactive)
CC(C)(C)c1nnc(N/N=C/c2ccccc2O)n(N)c1=O	28 µM (inactive)
O=C(N/N=C\c1c(O)ccc2ccccc12)c1ccc(S(=O)(=O)N2CCCCC2)cc1	> 80 µM (inactive)
O=C(c1ccc(Br)cc1)c1cc([N+](=O)[O-])ccc1N1CCOCC1	10.8 µM
CCCCCCCCCCn1ccc(=N)cc1	0.61 µM
O=C1CC(c2cc(Br)ccc2F)c2cc3c(cc2N1)CCC3 (stereo unspecified)	> 80 µM (inactive)

Compound	IC50
CCOc1ccc(S(=O)(=O)NCc2ccccn2)cc1NC(=O)c1ccccc1	40.7 µM (inactive)
O=c1cc(-c2ccccc2)[nH]c2cc(Cl)ccc12	19.1 µM
COc1cccc(-c2cc(=O)c3cc(NC(=O)c4ccccc4)ccc3[nH]2)c1	> 80 µM (inactive)
C(=N\Nc1nc2ccccc2s1)/c1ccccn1	1.45 µM
COc1ccc([C@H]2CC(=O)C=C(c3ccc(OC)cc3OC)C2)cc1	9.99 µM
COc1ccc(/C=C/C(=O)c2cc(F)ccc2OC(=O)c2ccccc2)cc1OC	< 0.16 µM
CCC1CCCCN1C(=O)c1cc(COc2ccc3ncccc3c2)on1 (stereo unspecified)	2.44 µM
CCCCCCCCCn1c2c(c(=N)c3c1CCC3)CCC2	0.98 µM
COc1ccc(NC(=O)/C(Cl)=C(/Cl)S(=O)Cc2ccccc2)cn1 (stereo unspecified)	8.71 µM
O=S1(=O)C=C(Sc2nc3ccccc3s2)c2ccccc21	5.57 µM
COc1ccc([C@H]2CC(=O)C=C(c3c(OC)cccc3OC)C2)cc1	10.2 µM
CCCOCCOC(=O)c1[nH]c2c(c1C)C(=O)CC(c1cc(OC)ccc1OC)C2 (stereo unspecified)	1 µM
CC1CCCN(c2ncnc3c2cnn3-c2ccc(Cl)cc2)C1 (stereo unspecified)	8.88 µM
CCCCCCCCCCCCCCCC[n+]1cccc(C(=O)N(CC)CC)c1	20.9 µM (inactive)
CCOCCOC(=O)c1[nH]c2c(c1C)C(=O)CC(c1ccccc1)C2 (stereo unspecified)	3.05 µM
CSc1nc(N(C)NC(=O)c2cccc(C)c2)c2ccccc2n1	4.16 µM
COc1cc(/C=C/c2ccc3cccc(O)c3n2)cc(OC)c1OC	> 80 µM (inactive)
Cc1ccc(-c2nc(-c3ccccn3)no2)cc1	3.83 µM
CNC[C@H](CC1CCCCC1)NC[C@H](Cc1ccccc1)NCCC12CC3CC(CC(C3)C1)C2	25 µM (inactive)
CCOC(=O)CSC1=C(C#N)C(c2ccc(C)s2)CC(=O)N1 (stereo unspecified)	3.78 µM
COc1ccc(C2=NOC(C(=O)NCc3cccs3)C2)cc1OC (stereo unspecified)	35.2 µM (inactive)
CCN(CC)c1ccc(/C=N/NC(=O)c2cccc(S(=O)(=O)Nc3ccccc3OC)c2)c(O)c1	0.23 µM

Compound	IC50
COc1ccc(N/N=C/c2c(C(=O)O)ccc3ccccc23)cc1	15.8 µM
CCN(CC)c1ccc2nc3ccccc3[n+](CC)c2c1	2.01 µM
CCOCCCNC(=O)c1ccc2c(c1)N=C(CC)c1cc(Br)ccc1S2	1.46 µM
Cc1nc2ccccc2c2c1CC(C(C)(Cl)Br)O2 (stereo unspecified)	2.9 µM
CCc1ccc(N2C(=O)C(Cl)=C(Nc3ccc(C(=O)N4CCCC4)cc3)C2=O)cc1	66.9 µM (inactive)
Cc1noc(C)c1COc1ccc(CC(=O)NCc2ccccc2)cc1	20.5 µM (inactive)
O=C(Nc1ccc(N2CCOCC2)cc1)c1ccc(Cl)c(S(=O)(=O)N2CCCCC2)c1	1.15 µM
Cc1ccc(S(=O)(=O)Nc2cccc(-c3ccc4nncn4n3)c2)cc1	18.4 µM
CCOc1ccccc1NC(=O)CN(c1ccc(OC)cc1)S(=O)(=O)c1c(C)noc1C	16.9 µM
COc1ccc(C(C(=O)NC2CCCCC2)N(C(=O)CCl)c2ccc(C)cc2)cc1 (stereo unspecified)	> 80 µM (inactive)
Cc1cc(C)cc(NC(=O)c2ccc([N+](=O)[O-])o2)c1	31.5 µM (inactive)
CCCCCCCCCn1c2c(c(=N)c3c1CCC3)CCCC2	0.68 µM
COc1cc([C@@H]2c3cc4c(cc3[C@H](O)[C@H]3COC(=O)[C@H]23)OCO4)cc(OC)c1OC	< 0.16 µM
Cc1nn(C)c(C)c1CN(Cc1nc(CCC(C)C)no1)C(C)C	11 µM
Cc1nc(Sc2nnnn2C)c2c3c(sc2n1)CCC3	31.4 µM (inactive)
Cc1ccc2c(c1)C=CC(C#N)N2C(=O)c1ccccc1 (stereo unspecified)	29.1 µM (inactive)
CCN(CC)c1ccc2nc3ccc(N)cc3[n+](-c3ccccc3)c2c1	2.72 µM
O=C(Cc1ccc(-c2ccccc2)cc1)NCc1ccccc1	< 0.16 µM
Cc1cc(-c2ccc(C(C)C)c(S(=O)(=O)N3CCN(c4ccccc4)CC3)c2)on1	22 µM (inactive)
CCCC1=Nc2cc(C(=O)NCCCOCC)ccc2Sc2ccccc21	0.97 µM
CCC(=O)NC(c1ccc(C)cc1)c1ccc2cccnc2c1O (stereo unspecified)	0.73 µM
O=C(N[C@@H](Cc1ccccc1)C(=O)CCl)OCc1ccccc1	15.9 µM

Compound	IC50
COc1cc(/C=C/[N+](=O)[O-])ccc1OCc1cccc(C(=O)O)c1	10.5 µM
N#Cc1ccc(-c2cccs2)nc1SCc1cccnc1	0.94 µM
COC(=O)c1[nH]c2c(c1C)C(=O)CC(c1cccs1)C2 (stereo unspecified)	1.92 µM
O=[N+]([O-])c1ccc(Sc2ccc(Cl)c(Cl)c2)nc1	64 µM (inactive)
C=CCSc1nc2ccccc2n1C(=O)/C=C/c1cc(OC)c(OC)c(OC)c1	21.2 µM (inactive)
COc1ccc(NC(=O)/C(Cl)=C(/Cl)S(=O)Cc2ccc(C)cc2)cn1 (stereo unspecified)	5.5 µM
CC1(C)CC(N2CCN(C(c3ccccc3)c3ccccc3)CC2)=CC(=[N+]2CCCCC2)C1	1.25 µM
CC1(C)Cc2nc3sc4c(=O)n(CC(=O)NCc5ccccc5)cnc4c3cc2CO1	> 80 µM (inactive)
Nc1nc2n[nH]nc2c(=O)[nH]1	> 80 µM (inactive)
COC(=O)c1[nH]c2c(c1C)C(=O)CC(c1cccc(OC)c1)C2 (stereo unspecified)	2.58 µM
Cc1ccc(COC(=O)c2cc([N+](=O)[O-])ccc2N2CCOCC2)cc1	3.3 µM
COc1cc(NS(=O)(=O)c2ccc(OC)c(C)c2C)c(OC)cc1Cl	5.28 µM
Clc1cccc(Cl)c1/C=N/Nc1c(Cl)cncc1Cl	36.7 µM (inactive)
CCCCN=C[C@]12CCC(O)CC1(O)CCC1[C@@H]2CC[C@]2(C)[C@H](C3C=CC(=O)O3)CCC12O (stereo partly specified)	0.34 µM
CC(=O)Nc1ccc(S(=O)(=O)N2c3ccccc3C(C)=CC2(C)C)cc1	4.76 µM
CC(C)c1ccc(/C=N/Nc2ccc(C(=O)O)cc2)cc1	4.37 µM
COc1ccc(/C=N/NC(=O)COc2ccccc2-c2ccccc2)cc1	4.75 µM
CC(=O)c1sc2c(c1OC(=O)c1ccc(Cl)cc1Cl)c(=O)n(-c1ccccc1)c(=S)n2-c1ccccc1	28.7 µM (inactive)
